Measured values taken from patent EP2549976B1, “SKIN-FRIENDLY ACTIVE INGREDIENT COMBINATION TO COMBAT ACNE” (Beiersdorf AG, priority 2010, dated 2011).

Tests used:
P. acnes [1] = details: gegenüber P. acnes; cited from earlier work
P.acnes = experiment: Suspension test: decline of P. acnes in the formulations after 1 h, 6 h and 24 h (colony count); type: cell-based, Propionibacterium acnes; details: for antimikrobielle Wirksamkeit gegen P.acnes: result in words, suspension test, formulations as composed
Method: Die antimikrobielle Wirksamkeit der erfindungsgemäßen Kombinationen gegen P. acnes wurde zum Vergleich mit verschiedenen Formulierungen untersucht. Dazu wurde in einem Suspensionstest der Rückgang der P.acnes nach 1 h, 6h und 24h beobachtet. Dazu wurden wenige Einzelkolonien einer P.acnes - Kultur in 10mL anaerobem Medium im Impedanzgerät mit dem Programm PR37NT herangezogen. Nach der Wachstumsphase von ca. 18 Stunden wird zur Kontrolle der Keimzahl die OD gemessen, die etwa zwischen 0,3 - 0,5 liegen sollte. Für den Versuch wurden 100µL der gewachsene Kolonie und 100µL autoklaviertes Wasser zu 800mg der zu prüfenden Formulierung gegeben. Die Tests wurden manuell durchgeführt. Zwischen den Abnahmen werden die Proben unter anaeroben Bedingungen (Topf) gelagert. Die Proben wurden jeweils zum Zeitpunkt 1h, 6h und 24h genommen und auf den entsprechenden Agarplatten ausplattiert. Die Platten werden unter anaeroben Bedingungen (Topf) bei 37°C bebrütet. Nach 5 Tagen wurde die Keimzahl bestimmt. Die Abbildungen 1 und 2 zeigen die ermittelten Ergebnisse. Darin umfassen die Formulierung wie folgt • A: 0,5 Gew.% Licochalcone A • B: 0,5 Gew.% Licochalcone A und 0,3 Gew.% 1,2 Decandiol • C: 0,3 Gew.% 1,2 Decandiol • D: 0,5 Gew.% Licochalcone A, 0,3 Gew.% 1,2 Decandiol und 2 Gew.% Carnitin • E: 0,5 Gew.% Licochalcone A, 0,2 Gew.% 1,2 Decandiol und 2 Gew.% Carnitin • F: 0,5 Gew.% Licochalcone A, 0,1 Gew.% 1,2 Decandiol und 2 Gew.% Carnitin • G: 0,3 Gew.%-1,2 Decandiol und 2 Gew.% Carnitin • H: 0,2 Gew.% 1,2 Decandiol und 2 Gew.% Carnitin • I: 0,1 Gew.% 1,2 Decandiol und 2 Gew.% Carnitin

P. acnes [2] = details: 0,2 % 1,2-Decandiol alone or combined with 1 % Milchsäure, from EP 1598064 A1; cited from earlier work

| SMILES | MHK-Werte (P. acnes [1]) [pmm] | Reduktionsfaktor (P.acnes; 0,5% Licochalcone A allein, nach 24h) | antimikrobielle Wirksamkeit gegen P.acnes (P.acnes) | Zellzahl reduziert um Faktor (P.acnes; 0,3% Decandiol allein) | antibakterielle Wirkung im Suspensionstest (P. acnes [2]) |
| --- | --- | --- | --- | --- | --- |
| CC[C@H]1OC(=O)[C@H](C)[C@@H](O[C@H]2C[C@@](C)(OC)[C@@H](O)[C@H](C)O2)[C@H](C)[C@@H](O[C@@H]2O[C@H](C)C[C@H](N(C)C)[C@H]2O)[C@](C)(O)C[C@@H](C)C(=O)[C@H](C)[C@@H](O)[C@]1(C)O [Erythromycin] | < 1 | – | – | – | – |
| C=CC(C)(C)c1cc(/C=C/C(=O)c2ccc(O)cc2)c(OC)cc1O [Licochalcone A] | – | 41 | keine antimikrobielle Wirksamkeit | – | – |
| CN(C)[C@@H]1C(O)=C(C(N)=O)C(=O)[C@@]2(O)C(O)=C3C(=O)c4c(O)cccc4[C@@](C)(O)[C@H]3C[C@@H]12 [Tetracyclin] | < 1 | – | – | – | – |
| CCCCCCCCC(O)CO (stereo not shown) [1,2-Decandiol] | – | – | nur eine schwache antimikrobielle Wirksamkeit | 4158 | so gut wie keine antibakterielle Wirkung |
